Assay results taken from ChEMBL document CHEMBL4665834 (J Med Chem, 2020).
In brackets after ≈: the same amount, converted by molar mass. One block for each compound: values may come before it. Activity calls are given as the source filed them. The calls are words filed in the database; no cut-off is given here.

How the values were obtained:
[1] = system: Mus musculus; assay: Antifibrotic activity in silica-induced pulmonary fibrosis C57Bl6J mouse model assessed as decrease in lung MCP1 production at 3 to 30 mg/kg, po bid for 9 days measured post-last dose by Bio-Rad analysis; format: functional, organism-based; details: dose mg/kg 3-30, time 9.0 day
[2] = system: Mus musculus; assay: Antifibrotic activity in silica-induced pulmonary fibrosis C57Bl6J mouse model assessed as decrease in lung IL1beta production at 3 to 30 mg/kg, po bid for 9 days measured post-last dose by Bio-Rad analysis; format: functional, organism-based; details: dose mg/kg 3-30, time 9.0 day
[3] = system: Mus musculus; assay: Antifibrotic activity in silica-induced pulmonary fibrosis C57Bl6J mouse model assessed as decrease in lung osteopontin production at 3 to 30 mg/kg, po bid for 9 days measured post-last dose by Bio-Rad analysis; format: functional, organism-based; details: dose mg/kg 3-30, time 9.0 day
[4] = target: Prostaglandin F2-alpha receptor (Mus musculus) (UniProt P43117); assay: Antagonist activity at FPR in mouse NIH3T3 cells co-transfected with mtClytin assessed as inhibition of PGF2alpha-induced calcium flux preincubated for 5 mins followed by PGF2alpha stimulation and measured for 60 secs by calcium dye based fluorescence assay; format: functional, cell-based; details: filed as antagonist, time 6.0 min
Prostaglandin F2-alpha receptor (Mus musculus), sequence (P43117 whole entry): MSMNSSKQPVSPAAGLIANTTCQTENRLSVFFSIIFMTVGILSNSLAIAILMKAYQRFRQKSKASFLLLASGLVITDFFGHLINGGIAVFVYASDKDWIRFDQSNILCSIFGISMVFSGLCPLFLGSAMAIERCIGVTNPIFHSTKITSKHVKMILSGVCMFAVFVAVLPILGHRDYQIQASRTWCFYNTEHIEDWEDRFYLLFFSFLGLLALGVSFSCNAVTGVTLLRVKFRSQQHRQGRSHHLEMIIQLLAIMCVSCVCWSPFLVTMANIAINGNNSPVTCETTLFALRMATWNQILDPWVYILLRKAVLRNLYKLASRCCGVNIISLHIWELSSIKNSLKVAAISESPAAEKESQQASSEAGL

[5] = Oral bioavailability in Wistar rat at 1 to 3 mg/kg administered via gavage using EtOH/PEG400/H2O 10/40/50 formulation by LC-MS/MS analysis; format: ADME, organism-based; details: in vivo, dose 1-3 mg/kg
[6] = target: Cytochrome P450 3A4 (Homo sapiens, UniProt P08684); assay: Inhibition of CYP3A4 in human liver microsomes using midazolam as substrate incubated for 10 mins in presence of NADPH generating system by LC-MS/MS analysis
Cytochrome P450 3A4, sequence (P08684 whole entry): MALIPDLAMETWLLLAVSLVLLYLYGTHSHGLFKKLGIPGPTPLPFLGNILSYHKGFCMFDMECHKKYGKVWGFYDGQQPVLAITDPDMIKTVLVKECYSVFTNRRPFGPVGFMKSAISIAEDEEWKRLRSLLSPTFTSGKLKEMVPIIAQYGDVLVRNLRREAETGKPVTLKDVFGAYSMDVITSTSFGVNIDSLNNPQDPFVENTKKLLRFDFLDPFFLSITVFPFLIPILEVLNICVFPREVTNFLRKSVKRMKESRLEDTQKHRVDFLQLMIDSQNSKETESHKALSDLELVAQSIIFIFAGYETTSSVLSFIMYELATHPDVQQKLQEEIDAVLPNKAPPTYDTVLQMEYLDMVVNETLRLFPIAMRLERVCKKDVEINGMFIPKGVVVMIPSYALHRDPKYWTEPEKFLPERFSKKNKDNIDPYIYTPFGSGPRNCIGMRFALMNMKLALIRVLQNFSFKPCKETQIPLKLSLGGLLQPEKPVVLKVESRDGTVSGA

[7] = Induction of CYP3A4 mRNA expression in human hepatocytes supplemented with fresh medium containing compounds daily for 2 days measured 24 hrs post last dose by qRT-PCR analysis; details: 72 h
[8] = Lipophilicity, log D of compound at pH 7.5 by HPLC analysis; details: buffer
[9] = Half life in Wistar rat at 0.3 to 1 mg/kg, iv administered as bolus dose by LC-MS/MS analysis; format: ADME, organism-based; details: in vivo, dose 0.3-1 mg/kg
[10] = Toxicity in Wistar rat up to 200 mg/kg/day, po administered for 14 days; format: organism-based; details: in vivo, 336 h, time 14 day
[11] = Clearance in Wistar rat at 0.3 to 1 mg/kg, iv administered as bolus dose or 15 mins infusion by LC-MS/MS analysis; format: ADME, organism-based; details: in vivo, dose 0.3-1 mg/kg
[12] = organism: Homo sapiens; assay: Selectivity ratio of IC50 for displacement of [3H]prostaglandin E2 from full-length recombinant human EP1 receptor expressed in HEK293 cell membranes to IC50 for displacement of [3H]PGF2alpha from full-length recombinant human FP receptor expressed in HEK293 cell membranes
[13] = target: Prostaglandin E2 receptor EP3 subtype (Homo sapiens) (UniProt P43115); assay: Displacement of [3H]prostaglandin E2 from full-length recombinant human EP3 receptor expressed in HEK293 cell membranes measured after 120 mins by scintillation counting method
Prostaglandin E2 receptor EP3 subtype (Homo sapiens), sequence (P43115 whole entry): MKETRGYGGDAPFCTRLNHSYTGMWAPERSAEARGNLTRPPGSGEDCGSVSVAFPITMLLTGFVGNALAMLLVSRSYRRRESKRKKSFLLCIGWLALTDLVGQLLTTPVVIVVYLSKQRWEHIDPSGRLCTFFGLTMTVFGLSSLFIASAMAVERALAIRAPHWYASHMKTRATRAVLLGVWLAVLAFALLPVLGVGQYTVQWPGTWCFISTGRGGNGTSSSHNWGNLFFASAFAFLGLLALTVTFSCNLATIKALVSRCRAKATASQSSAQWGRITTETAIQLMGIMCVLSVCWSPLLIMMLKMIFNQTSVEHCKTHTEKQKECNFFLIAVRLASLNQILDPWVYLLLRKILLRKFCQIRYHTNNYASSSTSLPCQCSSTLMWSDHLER

[14] = organism: Homo sapiens; assay: Selectivity ratio of IC50 for displacement of [3H]prostaglandin E2 from full-length recombinant human EP4 receptor expressed in Chem-1 cell membranes to IC50 for displacement of [3H]PGF2alpha from full-length recombinant human FP receptor expressed in HEK293 cell membranes
[15] = target: T1, Prostaglandin F2-alpha receptor (Homo sapiens, UniProt P43088); assay: Displacement of [3H]PGF2alpha from full-length recombinant human FP receptor expressed in HEK293 cell membranes measured after 60 mins by scintillation counting method
T1 sequence (P43088 whole entry): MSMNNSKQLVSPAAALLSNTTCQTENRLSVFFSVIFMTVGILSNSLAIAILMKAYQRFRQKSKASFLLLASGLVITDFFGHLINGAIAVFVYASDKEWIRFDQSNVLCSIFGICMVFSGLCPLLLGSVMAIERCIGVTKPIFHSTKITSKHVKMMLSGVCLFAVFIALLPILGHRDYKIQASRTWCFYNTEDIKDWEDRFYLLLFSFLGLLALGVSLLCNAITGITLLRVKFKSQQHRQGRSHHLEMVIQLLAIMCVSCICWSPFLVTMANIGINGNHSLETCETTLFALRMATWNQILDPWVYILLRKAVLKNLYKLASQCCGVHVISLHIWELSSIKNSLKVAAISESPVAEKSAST

[16] = organism: Homo sapiens; assay: Selectivity ratio of IC50 for displacement of [3H]prostaglandin E2 from full-length recombinant human EP2 receptor expressed in HEK293 cell membranes to IC50 for displacement of [3H]PGF2alpha from full-length recombinant human FP receptor expressed in HEK293 cell membranes
[17] = target: T1, Prostaglandin F2-alpha receptor; assay: Antagonist activity at human FPR expressed in human Chem-1 cells assessed as inhibition of PGF2alpha-induced calcium flux preincubated for 10 mins followed by PGF2alpha stimulation and measured for 120 secs by fluo-8 AM dye based fluorescence assay; format: functional, cell-based
[18] = organism: Homo sapiens; assay: Selectivity ratio of IC50 for displacement of [3H]PGD2 from full-length recombinant human DP1 receptor expressed in Chem-1 cell membranes to IC50 for displacement of [3H]PGF2alpha from full-length recombinant human FP receptor expressed in HEK293 cell membranes
[19] = target: Prostaglandin E2 receptor EP4 subtype (Homo sapiens, UniProt P35408); assay: Displacement of [3H]prostaglandin E2 from full-length recombinant human EP4 receptor expressed in HEK293 cell membranes measured after 120 mins by scintillation counting method
Prostaglandin E2 receptor EP4 subtype, sequence (P35408 whole entry): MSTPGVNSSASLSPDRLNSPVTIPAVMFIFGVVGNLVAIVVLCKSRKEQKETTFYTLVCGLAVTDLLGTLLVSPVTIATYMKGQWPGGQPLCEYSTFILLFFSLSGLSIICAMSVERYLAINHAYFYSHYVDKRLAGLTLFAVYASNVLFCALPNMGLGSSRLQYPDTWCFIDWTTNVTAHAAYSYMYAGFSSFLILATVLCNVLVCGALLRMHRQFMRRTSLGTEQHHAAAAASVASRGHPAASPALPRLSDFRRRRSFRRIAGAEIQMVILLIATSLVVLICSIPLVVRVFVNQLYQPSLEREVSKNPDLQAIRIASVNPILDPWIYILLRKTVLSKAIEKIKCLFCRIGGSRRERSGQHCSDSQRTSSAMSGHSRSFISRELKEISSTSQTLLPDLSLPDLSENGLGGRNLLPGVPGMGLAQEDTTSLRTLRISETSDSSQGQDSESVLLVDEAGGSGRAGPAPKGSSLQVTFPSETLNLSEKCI

[20] = target: Prostaglandin E2 receptor EP2 subtype (Homo sapiens, UniProt P43116); assay: Displacement of [3H]prostaglandin E2 from full-length recombinant human EP2 receptor expressed in HEK293 cell membranes measured after 120 mins by scintillation counting method
Prostaglandin E2 receptor EP2 subtype, sequence (P43116 whole entry): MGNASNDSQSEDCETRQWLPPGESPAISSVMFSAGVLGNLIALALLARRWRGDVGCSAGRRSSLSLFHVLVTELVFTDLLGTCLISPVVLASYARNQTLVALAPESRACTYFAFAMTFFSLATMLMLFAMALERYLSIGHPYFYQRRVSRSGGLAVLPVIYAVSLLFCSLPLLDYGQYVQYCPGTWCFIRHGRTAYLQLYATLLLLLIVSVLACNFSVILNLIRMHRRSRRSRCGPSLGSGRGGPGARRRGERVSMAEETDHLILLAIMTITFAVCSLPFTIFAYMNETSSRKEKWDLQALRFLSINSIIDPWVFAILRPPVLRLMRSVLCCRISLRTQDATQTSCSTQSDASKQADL

[21] = target: Prostaglandin E2 receptor EP1 subtype (Homo sapiens) (UniProt P34995); assay: Displacement of [3H]prostaglandin E2 from full-length recombinant human EP1 receptor expressed in HEK293 cell membranes measured after 60 mins by scintillation counting method
[22] = organism: Homo sapiens; assay: Selectivity ratio of IC50 for displacement of [3H]prostaglandin E2 from full-length recombinant human EP3 receptor expressed in HEK293 cell membranes to IC50 for displacement of [3H]PGF2alpha from full-length recombinant human FP receptor expressed in HEK293 cell membranes
[23] = organism: Homo sapiens; assay: Selectivity ratio of IC50 for displacement of [3H]PGD2 from full-length recombinant human IP receptor expressed in HEK293 cell membranes to IC50 for displacement of [3H]PGF2alpha from full-length recombinant human FP receptor expressed in HEK293 cell membranes
[24] = target: Prostaglandin D2 receptor (Homo sapiens) (UniProt Q13258); assay: Displacement of [3H]PGD2 from full-length recombinant human DP1 receptor expressed in Chem-1 cell membranes measured after 120 mins by scintillation counting method
Prostaglandin D2 receptor (Homo sapiens), sequence (Q13258 whole entry): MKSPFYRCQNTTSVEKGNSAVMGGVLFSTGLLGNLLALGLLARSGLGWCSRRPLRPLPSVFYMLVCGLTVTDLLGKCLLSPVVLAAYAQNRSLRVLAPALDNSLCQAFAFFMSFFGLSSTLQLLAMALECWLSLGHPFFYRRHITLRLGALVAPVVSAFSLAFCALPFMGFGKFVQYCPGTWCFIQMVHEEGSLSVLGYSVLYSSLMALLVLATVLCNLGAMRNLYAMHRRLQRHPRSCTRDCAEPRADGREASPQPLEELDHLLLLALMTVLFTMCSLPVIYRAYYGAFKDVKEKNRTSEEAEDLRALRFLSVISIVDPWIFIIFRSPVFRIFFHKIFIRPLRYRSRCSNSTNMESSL

[25] = target: Prostacyclin receptor (Homo sapiens, UniProt P43119); assay: Displacement of [3H]PGD2 from full-length recombinant human IP receptor expressed in HEK293 cell membranes measured after 60 mins by scintillation counting method
Prostacyclin receptor, sequence (P43119 whole entry): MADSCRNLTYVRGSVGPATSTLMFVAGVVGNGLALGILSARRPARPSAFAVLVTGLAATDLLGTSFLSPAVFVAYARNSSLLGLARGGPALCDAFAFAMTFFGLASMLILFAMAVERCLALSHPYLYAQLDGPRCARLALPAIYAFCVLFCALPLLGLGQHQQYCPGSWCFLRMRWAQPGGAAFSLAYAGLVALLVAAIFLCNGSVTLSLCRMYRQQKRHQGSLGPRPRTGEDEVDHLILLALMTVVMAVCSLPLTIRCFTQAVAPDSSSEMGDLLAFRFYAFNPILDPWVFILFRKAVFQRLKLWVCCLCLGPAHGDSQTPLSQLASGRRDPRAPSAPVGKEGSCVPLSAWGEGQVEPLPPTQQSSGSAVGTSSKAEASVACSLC

[26] = Oral bioavailability in Wistar rat at 1 to 3 mg/kg administered via gavage using EtOH/PEG400/H2O/DMSO 8/40/50/2 formulation by LC-MS/MS analysis; format: ADME, organism-based; details: in vivo, dose 1-3 mg/kg
[27] = target: Cytochrome P450 1A2 (Homo sapiens, UniProt P05177); assay: Inhibition of CYP1A2 in human liver microsomes using phenacetin as substrate incubated for 15 mins in presence of NADPH generating system by LC-MS/MS analysis; format: ADME
Cytochrome P450 1A2, sequence (P05177 whole entry): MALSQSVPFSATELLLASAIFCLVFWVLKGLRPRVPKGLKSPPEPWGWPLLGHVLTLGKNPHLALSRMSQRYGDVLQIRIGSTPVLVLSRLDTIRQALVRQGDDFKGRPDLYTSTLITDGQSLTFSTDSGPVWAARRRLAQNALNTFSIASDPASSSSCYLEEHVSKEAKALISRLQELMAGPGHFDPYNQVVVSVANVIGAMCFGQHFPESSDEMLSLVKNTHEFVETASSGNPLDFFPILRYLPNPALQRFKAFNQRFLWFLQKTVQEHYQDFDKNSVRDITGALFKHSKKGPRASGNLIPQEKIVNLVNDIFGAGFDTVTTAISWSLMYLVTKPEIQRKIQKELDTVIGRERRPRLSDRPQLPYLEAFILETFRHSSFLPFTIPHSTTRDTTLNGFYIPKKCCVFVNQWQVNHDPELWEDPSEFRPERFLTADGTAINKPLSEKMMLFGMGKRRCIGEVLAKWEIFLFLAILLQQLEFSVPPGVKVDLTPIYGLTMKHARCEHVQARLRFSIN

[28] = Clearance in Wistar rat at 0.3 to 1 mg/kg, iv administered as bolus dose by LC-MS/MS analysis; format: ADME, organism-based; details: in vivo, dose 0.3-1 mg/kg
[29] = target: Cytochrome P450 2C8 (Homo sapiens, UniProt P10632); assay: Inhibition of CYP2C8 in human liver microsomes using amodiaquine as substrate incubated for 15 mins in presence of NADPH generating system by LC-MS/MS analysis; format: ADME
[30] = target: Cytochrome P450 2C9 (Homo sapiens, UniProt P11712); assay: Inhibition of CYP2C9 in human liver microsomes using diclofenac as substrate incubated for 15 mins in presence of NADPH generating system by LC-MS/MS analysis; format: ADME
Cytochrome P450 2C9, sequence (P11712 whole entry): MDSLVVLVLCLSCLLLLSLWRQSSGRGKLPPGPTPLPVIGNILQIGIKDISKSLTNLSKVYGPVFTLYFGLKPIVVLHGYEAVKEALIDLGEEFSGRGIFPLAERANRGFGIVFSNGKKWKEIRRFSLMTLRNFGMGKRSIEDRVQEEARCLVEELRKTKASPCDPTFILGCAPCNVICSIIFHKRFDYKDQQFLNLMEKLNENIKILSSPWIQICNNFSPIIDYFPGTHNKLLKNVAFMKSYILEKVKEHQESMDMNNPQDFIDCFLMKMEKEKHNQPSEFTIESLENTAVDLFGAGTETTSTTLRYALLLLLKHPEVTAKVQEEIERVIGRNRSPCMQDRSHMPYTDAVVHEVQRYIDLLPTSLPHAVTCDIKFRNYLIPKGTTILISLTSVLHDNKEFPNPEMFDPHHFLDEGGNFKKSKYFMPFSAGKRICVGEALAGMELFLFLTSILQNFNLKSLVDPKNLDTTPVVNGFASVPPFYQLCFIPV

[31] = target: Cytochrome P450 2D6 (Homo sapiens, UniProt P10635); assay: Inhibition of CYP2D6 in human liver microsomes using dextromethorphan as substrate incubated for 15 mins in presence of NADPH generating system by LC-MS/MS analysis; format: ADME
Cytochrome P450 2D6, sequence (P10635 whole entry): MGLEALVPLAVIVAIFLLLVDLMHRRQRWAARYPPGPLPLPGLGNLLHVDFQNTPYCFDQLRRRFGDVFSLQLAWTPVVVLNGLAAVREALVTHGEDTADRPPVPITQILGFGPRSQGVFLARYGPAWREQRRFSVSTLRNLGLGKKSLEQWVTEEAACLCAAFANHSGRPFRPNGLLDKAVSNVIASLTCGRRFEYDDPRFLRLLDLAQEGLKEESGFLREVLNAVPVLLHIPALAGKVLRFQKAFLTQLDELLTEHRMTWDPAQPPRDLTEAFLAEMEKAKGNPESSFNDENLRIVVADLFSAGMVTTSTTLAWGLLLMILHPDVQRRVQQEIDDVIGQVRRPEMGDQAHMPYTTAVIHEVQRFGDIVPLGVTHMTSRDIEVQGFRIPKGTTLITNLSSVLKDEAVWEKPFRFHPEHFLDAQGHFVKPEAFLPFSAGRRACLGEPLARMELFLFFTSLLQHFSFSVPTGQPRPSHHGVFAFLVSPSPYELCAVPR

[32] = Solubility of compound at pH 1 to 7 using crystalline form of sample; format: physicochemical
[33] = Protein binding in pooled human plasma assessed as unbound fraction incubated for 6 hrs by LC-MS/MS analysis based equilibrium dialysis method; format: ADME, cell-free

fIC50 [4]: 5.2 nM
SMILES: Cc1c(N2CCCC2)nc2ccc(Br)cc2c1C(=O)NC[C@H](CCC(=O)O)c1ccccc1Cl
Activity [1]: Active
Activity [2]: Active
Activity [3]: Active

bioavailability [5]: 90%
IC50 [6]: > 20 µM
logD [8]: 2
half-life [9]: 2.6 h
CL ([11]; 0.25 h): 43.3 mL/min/kg
SMILES: Cc1c(-c2ccccc2)nc2ccc(Br)cc2c1C(=O)NCC(CC(=O)O)c1ccccc1Cl (single isomer, unassigned; (+))
NOAEL [7]: 6 µM
Activity [10]: Non-Toxic

inhibition [13]: inactive
IC50 [15]: 1.4 µM
IC50 [17]: 1.8 µM
inhibition [19]: inactive
IC50 [20]: 4.4 µM
inhibition [21]: inactive
inhibition [24]: inactive
inhibition [25]: inactive
SMILES: Cc1c(-c2cccs2)nc2ccc(Br)cc2c1C(=O)NCCc1cccnc1
Ratio IC50 [12]: > 3.1
Ratio IC50 [14]: > 3.1
Ratio IC50 [16]: > 3.1
Ratio IC50 [18]: > 3.1
Ratio IC50 [22]: > 3.1
Ratio IC50 [23]: > 3.1

bioavailability [26]: 90%
bioavailability [5]: 100%
IC50 [27]: > 10 µM
IC50 [6]: > 10 µM
clearance [28]: 0.5 mL/min/kg
IC50 [29]: > 10 µM
half-life [9]: 15 h
IC50 [30]: > 10 µM
IC50 [31]: > 10 µM
SMILES: Cc1c(-c2ccccc2)nc2ccc(Br)cc2c1C(=O)NC12CCC(C(=O)O)(CC1)CC2

bioavailability [5]: 100%
solubility [32]: 1 µg/mL (≈ 2.09 µM)
IC50 [6]: > 20 µM
IC50 [17]: 0.027 µM
logD [8]: 1.9
half-life [9]: 3.1 h
clearance ([11]; Wistar): 16.7 mL/min/kg
fraction unbound at 6 h [33]: 0.016
SMILES: Cc1c(-c2ccccc2)nc2ccc(Br)cc2c1C(=O)Nc1ccc(C(=O)O)cc1F
